PubChem BioAssay AID1845201 (Molecular Pharmacology Branch, DTP, NCI, 2023)
“And” between values parts separate entries of the source, which are not always exact repeats. Equal entries are not always repeated.

Tested on: COR L88 complex tumor spheroid viability
Assay: Anticancer human tumor COR L88 cell line growth inhibition;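 note: compound exposure lasted 7 days before viability readout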;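 for viability, T/C: percent of DMSO vehicle-treated spheroids = 100%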
Conditions: for viability, T/C: stronger effect = lower value
In short: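 Complex tumor spheroids combined malignant cells with endothelial cells and mesenchymal stem cells. DNA-damaging drugs and DNA repair inhibitors were tested alone and in combination, at half-log dilutions down from clinical Cmax (top 10 microM if Cmax unknown), 0.25% DMSO final.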

[1] = curve of first compound, second compound 30 pM
[2] = curve of first compound, second compound 94.9 pM
[3] = curve of first compound, second compound 0.0003 µM
[4] = curve of first compound, second compound 0.000949 µM
[5] = curve of first compound, second compound 0.003 µM
[6] = second compound 0.003 µM, first compound 0.0316 µM
[7] = second compound 0.003 µM, first compound 0.1 µM
[8] = second compound 0.003 µM, first compound 0.316 µM
[9] = second compound 0.003 µM, first compound 1 µM
[10] = second compound 0.003 µM, first compound 3.16 µM
[11] = second compound 0.003 µM, first compound 10 µM

With `Cc1sc2c(c1C)C(c1ccc(Cl)cc1)=NC(CC(=O)Nc1ccc(O)cc1)c1nnc(C)n1-2` (configuration not stated) + COc1cc2c(cc1O)CCNC21CSC2c3c(OC(C)=O)c(C)c4c(c3C(COC1=O)N1C(O)C3Cc5cc(C)c(OC)c(O)c5C(C21)N3C)OCO4 the IC50 [1] was 455 nM, the IC50 [2] was 432 nM and the IC50 [3] was 464 nM. The IC50 [4] was 104 nM, the IC50 [5] was less than 9.49 nM and the viability, T/C (second compound 30 pM, first compound 0.00949 µM) was 92.5%. For the same compound, the viability, T/C (second compound 30 pM, first compound 0.03 µM) was 90.9%, the viability, T/C (second compound 30 pM, first compound 0.0949 µM) was 101% and the viability, T/C (second compound 30 pM, first compound 0.3 µM) was 65.3%. For the same compound, the viability, T/C (second compound 30 pM, first compound 0.949 µM) was 23.6%, the viability, T/C (second compound 30 pM, first compound 3 µM) was 14.8% and the viability, T/C (second compound 94.9 pM, first compound 0.00949 µM) was 92.6%. For the same compound, the viability, T/C (second compound 94.9 pM, first compound 0.03 µM) was 96.5%, the viability, T/C (second compound 94.9 pM, first compound 0.0949 µM) was 94.2% and the viability, T/C (second compound 94.9 pM, first compound 0.3 µM) was 55.3%. The viability, T/C (second compound 94.9 pM, first compound 0.949 µM) was 33.5%, the viability, T/C (second compound 94.9 pM, first compound 3 µM) was 14.1% and the viability, T/C (second compound 0.0003 µM, first compound 0.00949 µM) was 76.1%. For the same compound, the viability, T/C (second compound 0.0003 µM, first compound 0.03 µM) was 118%, the viability, T/C (second compound 0.0003 µM, first compound 0.0949 µM) was 122% and the viability, T/C (second compound 0.0003 µM, first compound 0.3 µM) was 72.6%. For the same compound, the viability, T/C (second compound 0.0003 µM, first compound 0.949 µM) was 15.1%, the viability, T/C (second compound 0.0003 µM, first compound 3 µM) was 3.51% and the viability, T/C (second compound 0.000949 µM, first compound 0.00949 µM) was 87.4%. It also gave a viability, T/C (second compound 0.000949 µM, first compound 0.03 µM) of 84.6%, a viability, T/C (second compound 0.000949 µM, first compound 0.0949 µM) of 54% and a viability, T/C (second compound 0.000949 µM, first compound 0.3 µM) of 5.62%. It also gave a viability, T/C (second compound 0.000949 µM, first compound 0.949 µM) of 1.33%, a viability, T/C (second compound 0.000949 µM, first compound 3 µM) of 0.42% and a viability, T/C (second compound 0.003 µM, first compound 0.00949 µM) of 0.68%. The viability, T/C (second compound 0.003 µM, first compound 0.03 µM) was 0.7%, the viability, T/C (second compound 0.003 µM, first compound 0.0949 µM) was 0.6% and the viability, T/C (second compound 0.003 µM, first compound 0.3 µM) was 0.57%. It also gave a viability, T/C (second compound 0.003 µM, first compound 0.949 µM) of 0.69% and a viability, T/C (second compound 0.003 µM, first compound 3 µM) of 1.49%.

In the case of `CC1COCCN1c1cc(-c2ccnn2C)c2ccnc(-c3ccn[nH]3)c2n1` (configuration not stated) + CC[C@@]1(O)C(=O)OCc2c1cc1n(c2=O)Cc2cc3c(CN(C)C)c(O)ccc3nc2-1, the IC50 [5] is reported as 150 nM, the IC50 (curve of first compound, second compound 0.00949 µM) is reported as less than 31.6 nM and the IC50 (curve of first compound, second compound 0.03 µM) is reported as less than 31.6 nM. It also gave an IC50 (curve of first compound, second compound 0.0949 µM) of less than 31.6 nM, an IC50 (curve of first compound, second compound 0.3 µM) of less than 31.6 nM and a viability, T/C [6] of 72.1%. It also gave a viability, T/C [7] of 53.5%, a viability, T/C [8] of 41.7% and a viability, T/C [9] of 25.8%. It also gave a viability, T/C [10] of 16.1%, a viability, T/C [11] of 4.41% and a viability, T/C (second compound 0.00949 µM, first compound 0.0316 µM) of 37.8%. For the same compound, the viability, T/C (second compound 0.00949 µM, first compound 0.1 µM) was 35.5%, the viability, T/C (second compound 0.00949 µM, first compound 0.316 µM) was 27.7% and the viability, T/C (second compound 0.00949 µM, first compound 1 µM) was 17.1%. The viability, T/C (second compound 0.00949 µM, first compound 3.16 µM) was 7.44%, the viability, T/C (second compound 0.00949 µM, first compound 10 µM) was 3.34% and the viability, T/C (second compound 0.03 µM, first compound 0.0316 µM) was 26.1%. The viability, T/C (second compound 0.03 µM, first compound 0.1 µM) was 23%, the viability, T/C (second compound 0.03 µM, first compound 0.316 µM) was 16.6% and the viability, T/C (second compound 0.03 µM, first compound 1 µM) was 10.1%. It also gave a viability, T/C (second compound 0.03 µM, first compound 3.16 µM) of 5.31%, a viability, T/C (second compound 0.03 µM, first compound 10 µM) of 2.97% and a viability, T/C (second compound 0.0949 µM, first compound 0.0316 µM) of 15.2%. It also gave a viability, T/C (second compound 0.0949 µM, first compound 0.1 µM) of 12.2%, a viability, T/C (second compound 0.0949 µM, first compound 0.316 µM) of 8.67% and a viability, T/C (second compound 0.0949 µM, first compound 1 µM) of 5.76%. It also gave a viability, T/C (second compound 0.0949 µM, first compound 3.16 µM) of 2.87%, a viability, T/C (second compound 0.0949 µM, first compound 10 µM) of 1.98% and a viability, T/C (second compound 0.3 µM, first compound 0.0316 µM) of 6.79%. It also gave a viability, T/C (second compound 0.3 µM, first compound 0.1 µM) of 6.02%, a viability, T/C (second compound 0.3 µM, first compound 0.316 µM) of 5.21% and a viability, T/C (second compound 0.3 µM, first compound 1 µM) of 3.2%. It also gave a viability, T/C (second compound 0.3 µM, first compound 3.16 µM) of 1.82% and a viability, T/C (second compound 0.3 µM, first compound 10 µM) of 1.1%.

In the case of `CC1COCCN1c1cc(-c2ccnn2C)c2ccnc(-c3ccn[nH]3)c2n1` (configuration not stated) + COc1cc2c(cc1O)CCNC21CSC2c3c(OC(C)=O)c(C)c4c(c3C(COC1=O)N1C(O)C3Cc5cc(C)c(OC)c(O)c5C(C21)N3C)OCO4, the IC50 [1] is reported as 111 nM, the IC50 [2] is reported as less than 31.6 nM and the IC50 [3] is reported as less than 31.6 nM. For the same compound, the IC50 [4] was less than 31.6 nM, the IC50 [5] was less than 31.6 nM and the viability, T/C (second compound 30 pM, first compound 0.0316 µM) was 72.1%. For the same compound, the viability, T/C (second compound 30 pM, first compound 0.1 µM) was 49.5%, the viability, T/C (second compound 30 pM, first compound 0.316 µM) was 36.7% and the viability, T/C (second compound 30 pM, first compound 1 µM) was 20.3%. It also gave a viability, T/C (second compound 30 pM, first compound 3.16 µM) of 7.72%, a viability, T/C (second compound 30 pM, first compound 10 µM) of 3.13% and a viability, T/C (second compound 94.9 pM, first compound 0.0316 µM) of 41.8%. It also gave a viability, T/C (second compound 94.9 pM, first compound 0.1 µM) of 36.9%, a viability, T/C (second compound 94.9 pM, first compound 0.316 µM) of 25.6% and a viability, T/C (second compound 94.9 pM, first compound 1 µM) of 17.2%. For the same compound, the viability, T/C (second compound 94.9 pM, first compound 3.16 µM) was 6.6%, the viability, T/C (second compound 94.9 pM, first compound 10 µM) was 2.46% and the viability, T/C (second compound 0.0003 µM, first compound 0.0316 µM) was 28.6%. For the same compound, the viability, T/C (second compound 0.0003 µM, first compound 0.1 µM) was 25.4%, the viability, T/C (second compound 0.0003 µM, first compound 0.316 µM) was 19.9% and the viability, T/C (second compound 0.0003 µM, first compound 1 µM) was 11%. For the same compound, the viability, T/C (second compound 0.0003 µM, first compound 3.16 µM) was 3.54%, the viability, T/C (second compound 0.0003 µM, first compound 10 µM) was 1.58% and the viability, T/C (second compound 0.000949 µM, first compound 0.0316 µM) was 6.86%. The viability, T/C (second compound 0.000949 µM, first compound 0.1 µM) was 7.07%, the viability, T/C (second compound 0.000949 µM, first compound 0.316 µM) was 3.61% and the viability, T/C (second compound 0.000949 µM, first compound 1 µM) was 2.02%. The viability, T/C (second compound 0.000949 µM, first compound 3.16 µM) was 0.7%, the viability, T/C (second compound 0.000949 µM, first compound 10 µM) was 0.25% and the viability, T/C [6] was 0.56%. The viability, T/C [7] was 0.53%, the viability, T/C [8] was 0.53% and the viability, T/C [9] was 0.41%. For the same compound, the viability, T/C [10] was 0.58% and the viability, T/C [11] was 0.58%.

With `CC1COCCN1c1cc(-c2ccnn2C)c2ccnc(-c3ccn[nH]3)c2n1` (configuration not stated) the viability, T/C (compound 0.0316 µM) was 94.4% and 93.6% and 97.8%, the viability, T/C (compound 0.1 µM) was 59.7% and 70.8% and 77% and the viability, T/C (compound 0.316 µM) was 34.2% and 52% and 53.1%. For the same compound, the viability, T/C (compound 1 µM) was 22.5% and 30.1% and 36%, the viability, T/C (compound 3.16 µM) was 9.11% and 13.8% and 14.6% and the viability, T/C (compound 10 µM) was 3.91% and 5.8% and 5.02%. The IC50 (curve of compound) was 159 nM and 319 nM and 403 nM.
